Assay results published in patent US4011390A, “Semi-synthetic aminocyclitol aminoglycoside antibiotics and methods for the preparation thereof” (Schering-Plough Corporation, priority 1974, dated 1977).
In brackets after ≈: the same amount, converted by molar mass. Read-outs that look alike come from different tables or passages of the source.

What was measured:
Staphylococcus = assay: Protection Tests in Mice; format: in vivo; conditions: Staphylococcus Gray, read-out: PD50
From the text: (§1) In vivo Activity of the Mutamicin 1 and Sisomicin
(§2) Protection Tests in Mice

Escherichia coli [1] = assay: Protection Tests in Mice; format: in vivo
From the text: as §1, §2

Pseudomonas aeruginosa [2] = assay: Protection Tests in Mice; format: in vivo
From the text: as §1, §2

Acute Toxicity = conditions: mouse, in vivo
Escherichia coli [3] = assay: Disc test, Bauer-Kirby technique with 10 Mcg. discs; format: cell-based; conditions: Escherichia coli, read-out: Zone Size
From the text: (§3) Disc Test Results (Replicate Tests) With The Mutamicins, Sisomicin and
(§4) Bauer-Kirby Technique^1 With 10 Mcg. Discs
(§5) ^1 Bauer, Kirby, Sherris and Turck, American Journal of Clinical

Providence 164 = assay: as above; format: cell-based; conditions: strain 164
From the text: as §3, §4, §5

Staphylococcus aureus [4] = assay: as above; format: cell-based; conditions: Staphylococcus aureus
From the text: as §3, §4, §5

Bacillus subtilis [5] = assay: as above; format: cell-based; conditions: Bacillus subtilis, ATCC6633, strain ATCC 6633
From the text: as §3, §4, §5

Pseudomonas aeruginosa [6] = assay: as above; format: cell-based; conditions: Pseudomonas aeruginosa
From the text: as §3, §4, §5

Klebsiella pneumoniae [7] = assay: as above; format: cell-based; conditions: Klebsiella pneumoniae
From the text: as §3, §4, §5

Streptococcus pyogenes [8] = assay: as above; format: cell-based; conditions: Streptococcus pyogenes
From the text: as §3, §4, §5

Serratia = assay: MIC in Mueller-Hinton Broth pH 7.2; format: cell-based; conditions: pH 7.2
From the text: (§6) In vitro Activity of the Mutamicins and Sisomicin
(§7) MIC's in Mueller-Hinton Broth pH 7.2

Escherichia coli [9] = assay: MIC in Mueller-Hinton Broth pH 7.2; format: cell-based
From the text: as §6, §7

Trichophyton rubrum = assay: MIC in Mueller-Hinton Broth pH 7.2; format: cell-based; conditions: pH 7.2
From the text: as §6, §7

Aspergillus niger = assay: MIC in Mueller-Hinton Broth pH 7.2; format: cell-based; conditions: pH 7.2
From the text: as §6, §7

Staphylococcus aureus [10] = assay: MIC in Mueller-Hinton Broth pH 7.2; format: cell-based
From the text: as §6, §7

Salmonella typhimurium = assay: MIC in Mueller-Hinton Broth pH 7.2; format: cell-based; conditions: Salmonella enterica, strain B
From the text: as §6, §7

Bacillus subtilis [11] = assay: MIC in Mueller-Hinton Broth pH 7.2; format: cell-based; conditions: ATCC6633, strain ATCC 6633
From the text: as §6, §7

Candida albicans = assay: MIC in Mueller-Hinton Broth pH 7.2; format: cell-based; conditions: pH 7.2
From the text: as §6, §7

Proteus rettgeri = assay: MIC in Mueller-Hinton Broth pH 7.2; format: cell-based; conditions: Providencia rettgeri, pH 7.2
From the text: as §6, §7

Pseudomonas aeruginosa [12] = assay: MIC in Mueller-Hinton Broth pH 7.2; format: cell-based
From the text: as §6, §7

Klebsiella pneumoniae [13] = assay: MIC in Mueller-Hinton Broth pH 7.2; format: cell-based
From the text: as §6, §7

Providence = assay: MIC in Mueller-Hinton Broth pH 7.2; format: cell-based; conditions: strain (Genta. R.) 164
From the text: as §6, §7

Streptococcus pyogenes [14] = assay: MIC in Mueller-Hinton Broth pH 7.2; format: cell-based
From the text: as §6, §7

## CN[C@@H]1[C@@H](O)[C@@H](O[C@@H]2[C@@H](O)[C@H](O[C@H]3OC(CN)=CC[C@H]3N)[C@@H](N)C[C@H]2N)OC[C@]1(C)O [Sisomicin, O-2,6-Diamino-2,3,4,6-tetradeoxy-α-D-glycero-hex-4-eno-pryanosyl(1→4)-O-[3-deoxy-4-C-methyl-3-(methylamino)-B-L-arabinopyranosyl(1→6)] -2-deoxy-D-streptamine, reference compound]
Staphylococcus
  ED50: 1.8 mg/kg
Escherichia coli [1]; Escherichia coli 6922, read-out: PD50
  ED50: 2 mg/kg
Escherichia coli [1]; Escherichia coli Sc., read-out: PD50
  ED50: 1.7 mg/kg
Pseudomonas aeruginosa [2]; Pseudomonas aeruginosa 2552, read-out: PD50
  ED50: 2.8 mg/kg
Pseudomonas aeruginosa [2]; Pseudomonas aeruginosa 2557, read-out: PD50
  ED50: 2.7 mg/kg
Pseudomonas aeruginosa [2]; sc, Pseudomonas aeruginosa Sc., read-out: PD50
  ED50: 1.1 mg/kg
Acute Toxicity; ip
  LD50: 190 mg/kg
Acute Toxicity; iv
  LD50: 34 mg/kg
Escherichia coli [3]; ATCC10536, strain ATCC 10536, 10 Mcg. discs
  zone of inhibition at 10 µg/disc: 28 mm
Escherichia coli [3]
  zone of inhibition at 10 µg/disc: 15 mm
Escherichia coli [3]; strain 589, 10 Mcg. discs
  zone of inhibition at 10 µg/disc: 24 mm
Escherichia coli [3]; strain JR88, 10 Mcg. discs
  zone of inhibition at 10 µg/disc: 11 mm
Escherichia coli [3]; strain JR90, 10 Mcg. discs
  zone of inhibition at 10 µg/disc: 0 mm
Escherichia coli [3]; strain LA290/R55, 10 Mcg. discs
  zone of inhibition at 10 µg/disc: 13 mm
Escherichia coli [3]; strain Swidinsky 4195, 10 Mcg. discs
  zone of inhibition at 10 µg/disc: 24 mm
Providence 164
  zone of inhibition at 10 µg/disc: 13 mm
Staphylococcus aureus [4]; ATCC6538P, strain ATCC 6538P
  zone of inhibition at 10 µg/disc: 25 mm
Staphylococcus aureus [4]; strain 59N
  zone of inhibition at 10 µg/disc: 28 mm
Staphylococcus aureus [4]; strain Wood
  zone of inhibition at 10 µg/disc: 29 mm
Staphylococcus aureus [4]; strain Ziegler
  zone of inhibition at 10 µg/disc: 26 mm
Bacillus subtilis [5]
  zone of inhibition at 10 µg/disc: 31 mm
Pseudomonas aeruginosa [6]; strain Capetown 18
  zone of inhibition at 10 µg/disc: 14 mm
Pseudomonas aeruginosa [6]; strain D-2
  zone of inhibition at 10 µg/disc: 24 mm
Pseudomonas aeruginosa [6]; strain St. Michael 413
  zone of inhibition at 10 µg/disc: 26 mm
Pseudomonas aeruginosa [6]; strain St. Michael 762
  zone of inhibition at 10 µg/disc: 25 mm
Pseudomonas aeruginosa [6]; strain St. Michael 1262
  zone of inhibition at 10 µg/disc: 26 mm
Pseudomonas aeruginosa [6]; strain St. Michael 1395
  zone of inhibition at 10 µg/disc: 26 mm
Pseudomonas aeruginosa [6]; strain Stone 20
  zone of inhibition at 10 µg/disc: 27 mm
Pseudomonas aeruginosa [6]; strain Stone 39
  zone of inhibition at 10 µg/disc: 25 mm
Pseudomonas aeruginosa [6]; strain Stone 130
  zone of inhibition at 10 µg/disc: 14 mm
Pseudomonas aeruginosa [6]; strain Stone 138
  zone of inhibition at 10 µg/disc: 10 mm
Klebsiella pneumoniae [7]; strain Ad 17
  zone of inhibition at 10 µg/disc: 22 mm
Klebsiella pneumoniae [7]; strain Ad 18
  zone of inhibition at 10 µg/disc: 23 mm
Klebsiella pneumoniae [7]; strain Georgetown 3020
  zone of inhibition at 10 µg/disc: 13 mm
Klebsiella pneumoniae [7]; strain Georgetown 3694
  zone of inhibition at 10 µg/disc: 14 mm
Streptococcus pyogenes [8]; strain B-Cruz
  zone of inhibition at 10 µg/disc: 15 mm
Streptococcus pyogenes [8]; strain C
  zone of inhibition at 10 µg/disc: 13 mm
Serratia
  MIC: 0.8 µg/mL (≈ 1.79 µM)
Escherichia coli [9]; ATCC10536, pH 7.2, strain ATCC 10536
  MIC: 0.08 µg/mL (≈ 0.179 µM)
Escherichia coli [9]; pH 7.2, strain Baker 2
  MIC: 0.3 µg/mL (≈ 0.67 µM)
Escherichia coli [9]; pH 7.2, strain Fl4-Bk
  MIC: 0.3 µg/mL (≈ 0.67 µM)
Escherichia coli [9]; pH 7.2, strain Genta. adenyl LA290-R55
  MIC: 17.5 µg/mL (≈ 39.1 µM)
Escherichia coli [9]; pH 7.2, strain Genta. adenyl W677/R55
  MIC: 7.5 µg/mL (≈ 16.8 µM)
Escherichia coli [9]; pH 7.2, strain Kana. phosphor. 589
  MIC: 0.8 µg/mL (≈ 1.79 µM)
Escherichia coli [9]; pH 7.2, strain Kana. phosphor. C-13
  MIC: 0.3 µg/mL (≈ 0.67 µM)
Escherichia coli [9]; pH 7.2, strain Tobra. R 4195
  MIC: 0.8 µg/mL (≈ 1.79 µM)
Trichophyton rubrum
  MIC: > 25 µg/mL
Aspergillus niger
  MIC: > 25 µg/mL
Staphylococcus aureus [10]; ATCC6538P, pH 7.2, strain ATCC 6538P
  MIC: 0.08 µg/mL (≈ 0.179 µM)
Staphylococcus aureus [10]; pH 7.2, strain 59N
  MIC: 0.03 µg/mL (≈ 0.067 µM)
Staphylococcus aureus [10]; pH 7.2, strain 1118
  MIC: 3 µg/mL (≈ 6.7 µM)
Staphylococcus aureus [10]; pH 7.2, strain Grey
  MIC: 3 µg/mL (≈ 6.7 µM)
Staphylococcus aureus [10]; pH 7.2, strain Wood
  MIC: 0.03 µg/mL (≈ 0.067 µM)
Staphylococcus aureus [10]; pH 7.2, strain Ziegler
  MIC: 0.08 µg/mL (≈ 0.179 µM)
Salmonella typhimurium
  MIC: 0.3 µg/mL (≈ 0.67 µM)
Bacillus subtilis [11]
  MIC: 0.03 µg/mL (≈ 0.067 µM)
Candida albicans
  MIC: > 25 µg/mL
Proteus rettgeri
  MIC: 0.8 µg/mL (≈ 1.79 µM)
Pseudomonas aeruginosa [12]; pH 7.2
  MIC: > 25 µg/mL
Pseudomonas aeruginosa [12]; pH 7.2, strain 762, Mueller-Hinton Broth pH 7.2, read-out: MIC
  MIC: 0.3 µg/mL (≈ 0.67 µM)
Pseudomonas aeruginosa [12]; pH 7.2, strain 1262, Mueller-Hinton Broth pH 7.2, read-out: MIC
  MIC: 0.8 µg/mL (≈ 1.79 µM)
Pseudomonas aeruginosa [12]; pH 7.2, strain 1395, Mueller-Hinton Broth pH 7.2, read-out: MIC
  MIC: 0.08 µg/mL (≈ 0.179 µM)
Pseudomonas aeruginosa [12]; pH 7.2, strain D-2, Mueller-Hinton Broth pH 7.2, read-out: MIC
  MIC: 0.08 µg/mL (≈ 0.179 µM)
Pseudomonas aeruginosa [12]; pH 7.2, strain Genta. acetyl Capetown 18, Mueller-Hinton Broth pH 7.2, read-out: MIC
  MIC: 7.5 µg/mL (≈ 16.8 µM)
Pseudomonas aeruginosa [12]; pH 7.2, strain Genta. acetyl Stone 130, Mueller-Hinton Broth pH 7.2, read-out: MIC
  MIC: 17.5 µg/mL (≈ 39.1 µM)
Pseudomonas aeruginosa [12]; pH 7.2, strain NRRL B3223, Mueller-Hinton Broth pH 7.2, read-out: MIC
  MIC: 0.08 µg/mL (≈ 0.179 µM)
Pseudomonas aeruginosa [12]; pH 7.2, strain Stone 20, Mueller-Hinton Broth pH 7.2, read-out: MIC
  MIC: 0.3 µg/mL (≈ 0.67 µM)
Pseudomonas aeruginosa [12]; pH 7.2, strain Stone 39, Mueller-Hinton Broth pH 7.2, read-out: MIC
  MIC: 0.8 µg/mL (≈ 1.79 µM)
Pseudomonas aeruginosa [12]; pH 7.2, strain Stone 138, Mueller-Hinton Broth pH 7.2, read-out: MIC
  MIC: 7.5 µg/mL (≈ 16.8 µM)
Klebsiella pneumoniae [13]; pH 7.2, strain Ad 18
  MIC: 0.08 µg/mL (≈ 0.179 µM)
Klebsiella pneumoniae [13]; pH 7.2, strain Genta. adenyl 121
  MIC: 0.08 µg/mL (≈ 0.179 µM)
Klebsiella pneumoniae [13]; pH 7.2, strain Genta. adenyl 3020
  MIC: 7.5 µg/mL (≈ 16.8 µM)
Klebsiella pneumoniae [13]; pH 7.2, strain Genta. adenyl 3694
  MIC: 7.5 µg/mL (≈ 16.8 µM)
Klebsiella pneumoniae [13]; pH 7.2, strain Kana. phos. Ad 22
  MIC: 0.3 µg/mL (≈ 0.67 µM)
Providence
  MIC: > 25 µg/mL
Streptococcus pyogenes [14]; pH 7.2, strain 27
  MIC: 3 µg/mL (≈ 6.7 µM)
Streptococcus pyogenes [14]; pH 7.2, strain Alvarez
  MIC: 3 µg/mL (≈ 6.7 µM)
Streptococcus pyogenes [14]; pH 7.2, strain C
  MIC: 3 µg/mL (≈ 6.7 µM)
Streptococcus pyogenes [14]; pH 7.2, strain Cruz
  MIC: 3 µg/mL (≈ 6.7 µM)
Streptococcus pyogenes [14]; pH 7.2, strain Karipeds
  MIC: 0.8 µg/mL (≈ 1.79 µM)
Streptococcus pyogenes [14]; pH 7.2, strain Labay
  MIC: 3 µg/mL (≈ 6.7 µM)
